Like-named read-outs stand apart in the source and are kept apart here.
What was measured:
cancer cells = assay: Matrigel chemoinvasion assay (Boyden chambers); format: cell-based; details: 6 h, read-out: Chemoinvasion % inhibition at 50 μM
Source text: Matrigel Chemoinvasion Assay
This assay measures in vitro the potency of the compounds to repress the invasiveness of cancer cells, by inhibiting the MMPs produced by them. The assay uses a reconstituted basement membrane preparation, which is similar to the natural basement membranes that the tumor cells have to cross, in order to disseminate. The compounds examined have been added to the invasion chambers at various concentrations, and the resulted invasion was compared to untreated preparations.
Description of the of the Matrigel Chemoinvasion Experiment
a) The chemoinvasion assays were performed in Boyden chambers. Matrigel (25 μg) was dried on a polycarbonated filter (PVP free, Nucleopore). Fibroblast conditioned medium (obtained from confluent NIH-3T3 cells cultured in serum free DMEM) is used as the chemoattractant. […] The chambers were incubated in a humidified incubator at 37° C. in 5% CO2/95% air atmosphere for 6 h. The cells, which traversed the Matrigel layer and attached to the lower surface of the filter, were stained with Diff Quick (American Scientific Products) and counted.
The various compounds were examined as potential inhibitors at three concentrations: 100 μM, 50 μM and 10 μM.

recombinant MMP-2 = target: T1, recombinant MMP-2 (Homo sapiens, UniProt P08253); assay: MMP inhibitory potency in vitro, succinylated-gelatin colorimetric assay; format: biochemical; details: for times more active on MMP-2 than its analog or isomer: 11 vs 6, 9 vs 9a, 10 vs 10a, 11 vs 11a
T1 construct: purchased
T1 sequence (P08253 110-660): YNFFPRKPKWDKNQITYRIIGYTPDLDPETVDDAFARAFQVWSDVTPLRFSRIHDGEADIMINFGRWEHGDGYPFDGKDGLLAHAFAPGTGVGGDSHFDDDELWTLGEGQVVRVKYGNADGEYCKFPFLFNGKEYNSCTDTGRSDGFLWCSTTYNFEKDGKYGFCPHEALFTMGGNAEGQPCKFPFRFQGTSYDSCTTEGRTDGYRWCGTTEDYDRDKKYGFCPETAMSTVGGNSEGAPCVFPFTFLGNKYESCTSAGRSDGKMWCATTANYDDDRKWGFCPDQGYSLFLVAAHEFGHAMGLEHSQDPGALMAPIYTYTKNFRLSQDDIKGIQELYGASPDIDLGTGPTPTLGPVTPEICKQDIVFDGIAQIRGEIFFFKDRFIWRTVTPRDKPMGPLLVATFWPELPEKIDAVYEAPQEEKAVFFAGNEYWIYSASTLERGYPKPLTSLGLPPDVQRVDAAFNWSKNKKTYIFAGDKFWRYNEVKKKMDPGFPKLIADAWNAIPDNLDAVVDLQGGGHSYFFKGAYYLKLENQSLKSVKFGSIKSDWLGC
Method: (§1) Determination of MMP Inhibitory Potency (IC50 Values) in vitro
(§2) The commercially available recombinant MMP-2 and MMP-9 enzymes were incubated with succinylated-gelatin at four different concentrations for 3 h. The examined compounds were added at four to six different concentrations to the recombinant enzymes and the inhibitory potencies were expressed in a colorimetric change measured by an ELISA reader. The inhibitory activity (IC50) was calculated from the kinetic data obtained.

recombinant MMP-9 = target: T2, recombinant MMP-9 (Homo sapiens, UniProt P14780); assay: as above; format: biochemical
T2 construct: purchased
Method: as §1, §2

Endothelial cells = assay: Endothelial cell capillary tube formation; format: cell-based; details: read-out: Capillary Formation Inhibition % At 50 μM
Source text: Endothelial Cell Capillary Tube Formation
Some of the compounds were examined as to their potency to inhibit capillary formation, which is an in vitro model of angiogenesis, an essential step in the development of primary tumor and metastatic lesions. Endothelial cell migration to the newly formed tumor is the initial phase of angiogenesis, and is dependent on MMP expression. By using this assay that measures endothelial cell tube formation, the effects of some carbamoylphosphonates on angiogenesis at concentrations ranging from 100-5 μM were evaluated.
Description of the Endothelial Cell Capillary Tube Formation Experiment
Endothelial cells are harvested by 1 mM EDTA, and added to a Matrigel layer in a 24 well plate at 50,000 cells per well. After attachment, culture media (1 ml) is added and the plate is incubated as a monolayer culture. The plates are analyzed hourly using Hoffinan optics. This assay is used to evaluate inhibitory factors or stimulatory factors on capillary like structure formation, which may be added into the culture media.

murine melanoma = assay: Tumor growth and metastasis in vivo, murine melanoma model; set-up: species or system mice; details: for inhibition in vivo at 50 mg/kg: Mus musculus, 504 h; for oral bioavailability: values equal the PO % reduction in murine melanoma of Table 1
Source text: Tumor Growth and Metastasis in Animal Models—in vivo Test
The abilities of the novel carbamoylphosphonates to inhibit the formation of metastatic lesions in vivo were examined in the murine melanoma model both by intraperitoneal (IP) and peroral (PO) administration. […] This is especially important, since oral administration is the most convenient one for the patient, especially for long term chronic treatments such as those envisaged for drugs that are the subject of this application.

MMP-1 = target: T3, MMP-1 (Homo sapiens, UniProt P03956); assay: Selectivity towards different MMPs: MMP-1; format: biochemical; details: Table 2
T3 sequence (P03956 100-469): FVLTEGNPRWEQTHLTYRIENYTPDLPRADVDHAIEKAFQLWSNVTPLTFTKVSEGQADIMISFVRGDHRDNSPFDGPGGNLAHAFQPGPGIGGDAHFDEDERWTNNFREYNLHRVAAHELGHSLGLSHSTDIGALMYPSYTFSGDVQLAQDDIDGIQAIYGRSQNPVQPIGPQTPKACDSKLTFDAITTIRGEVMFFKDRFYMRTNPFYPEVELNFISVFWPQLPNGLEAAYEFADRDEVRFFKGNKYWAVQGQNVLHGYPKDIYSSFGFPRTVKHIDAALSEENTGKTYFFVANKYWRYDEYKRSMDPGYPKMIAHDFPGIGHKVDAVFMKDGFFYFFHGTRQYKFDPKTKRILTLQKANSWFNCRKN

MMP-3 = MMP-3 (Homo sapiens, UniProt P08254); assay: Selectivity towards different MMPs: MMP-3; format: biochemical; details: Table 2
MMP-8 = MMP-8 (Homo sapiens, UniProt P22894); assay: Selectivity towards different MMPs: MMP-8; format: biochemical; details: Table 2
[1] = Acute in vivo toxicity in healthy mice; details: daily for two weeks at 50, 250 and 500 mg/kg
Source text: Determination of Acute in vivo Toxicity of Representative Carbamoylphosphonates

[2] = ip, read-out: In vivo murine melanoma % reduction IP
[3] = po, read-out: In vivo murine melanoma % reduction PO

Sequence of MMP-3 (P08254 100-477, species assumed): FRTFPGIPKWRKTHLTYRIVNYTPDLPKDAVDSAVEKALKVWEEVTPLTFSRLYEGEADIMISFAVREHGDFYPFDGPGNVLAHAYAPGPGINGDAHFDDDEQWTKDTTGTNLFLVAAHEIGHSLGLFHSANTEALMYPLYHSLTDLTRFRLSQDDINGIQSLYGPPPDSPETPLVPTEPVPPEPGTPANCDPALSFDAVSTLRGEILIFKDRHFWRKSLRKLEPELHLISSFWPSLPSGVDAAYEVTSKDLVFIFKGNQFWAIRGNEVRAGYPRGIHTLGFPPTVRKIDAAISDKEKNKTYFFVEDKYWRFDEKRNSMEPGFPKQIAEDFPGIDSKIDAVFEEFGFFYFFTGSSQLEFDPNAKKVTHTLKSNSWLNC
Sequence of MMP-8 (P22894 101-467, species assumed): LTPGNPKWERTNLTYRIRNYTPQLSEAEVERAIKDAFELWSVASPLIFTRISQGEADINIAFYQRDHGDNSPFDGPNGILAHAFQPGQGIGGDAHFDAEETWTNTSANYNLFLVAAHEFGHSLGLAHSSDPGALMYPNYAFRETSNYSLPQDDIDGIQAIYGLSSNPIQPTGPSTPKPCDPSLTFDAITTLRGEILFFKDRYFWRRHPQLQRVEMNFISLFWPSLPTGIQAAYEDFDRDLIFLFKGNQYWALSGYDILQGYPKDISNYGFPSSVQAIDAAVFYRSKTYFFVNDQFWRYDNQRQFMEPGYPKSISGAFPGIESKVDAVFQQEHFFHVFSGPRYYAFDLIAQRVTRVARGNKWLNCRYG
T2 sequence (P14780 94-707, species assumed): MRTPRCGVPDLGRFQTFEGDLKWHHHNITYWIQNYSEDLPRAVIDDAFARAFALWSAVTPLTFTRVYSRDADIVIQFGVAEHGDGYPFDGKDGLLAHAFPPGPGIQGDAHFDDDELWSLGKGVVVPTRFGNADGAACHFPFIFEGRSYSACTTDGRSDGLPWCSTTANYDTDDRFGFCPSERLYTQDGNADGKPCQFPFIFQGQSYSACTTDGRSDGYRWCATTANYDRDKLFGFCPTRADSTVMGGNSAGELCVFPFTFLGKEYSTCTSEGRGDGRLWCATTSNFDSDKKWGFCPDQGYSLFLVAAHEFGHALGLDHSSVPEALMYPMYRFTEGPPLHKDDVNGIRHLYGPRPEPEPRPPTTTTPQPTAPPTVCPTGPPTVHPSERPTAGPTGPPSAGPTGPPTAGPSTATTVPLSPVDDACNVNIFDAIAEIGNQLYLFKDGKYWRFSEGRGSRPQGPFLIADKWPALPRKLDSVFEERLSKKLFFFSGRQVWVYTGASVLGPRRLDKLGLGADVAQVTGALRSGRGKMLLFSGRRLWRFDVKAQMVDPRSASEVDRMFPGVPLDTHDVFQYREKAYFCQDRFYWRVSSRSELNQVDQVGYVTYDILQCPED

SMILES	inhibition at 50 µM (cancer cells)	IC50 (recombinant MMP-2)	IC50 (recombinant MMP-9)	inhibition at 50 µM (Endothelial cells)	inhibition in vivo at 50 mg/kg (murine melanoma; [2])	inhibition in vivo at 50 mg/kg (murine melanoma; [3])	IC50 (MMP-1)	IC50 (MMP-3)	IC50 (MMP-8)	melting point	IC50 (recombinant MMP-2; Table 1, read-out: MMP-2 IC50)	further results
O=C(N[C@@H]1C[C@@H]2CC[C@H]1C2)P(=O)(O)O (relative stereo) [Compound 10, N-[endo-2-norbornyl]carbamoylphosphonic acid]	25%	100 nM	> 100 µM	30%	87%	80%	> 100000 nM	> 100000 nM	> 100000 nM	164 to 165 °C		times more active on MMP-2 than its analog or isomer (recombinant MMP-2): 150 times; IC50 (recombinant MMP-9; read-out: MMP-9 IC50 μM, Table 2): > 100 µM
O=C(N[C@@H]1C[C@H]2CC[C@@H]1C2)P(=O)(O)O (relative stereo) [Compound 10a, N-[exo-2-norbornyl]carbamoylphosphonic acid]		15000 nM	> 100 µM				1000 nM	> 100000 nM	> 100000 nM	170 to 172 °C		
N[C@H]1CCCC[C@@H]1NC(=O)P(=O)(O)O (relative stereo) [Compound 11a, Trans-2-aminocyclohexylcarbamoyl phosphonic acid]		20000 nM	> 100 µM				90000 nM	25000 nM	50000 nM			
O=C(NC1CCCC1)P(=O)(O)O [Compound 1, CyclopentylNHCOPO3H2]	65%			70%	72%	71%					80 nM	toxicity [1]: toxic at 250 mg/kg and 500 mg/kg doses
O=P(O)(O)C(=S)NC1CCCC1 [Compound 2, CyclopentylNHCSPO3H2]	70%	70 nM	50 µM		56%	70%						
O=C(NC1CCCCC1)P(=O)(O)O [Compound 3, CyclohexylNHCOPO3H2]	46%			50%	64%						3000 nM	
O=P(O)(O)C(=S)NC1CCCCC1 [Compound 4, CyclohexylNHCSPO3H2]	50%	100 nM	> 100 µM	38%	68%							
O=C(NCC1CCCCC1)P(=O)(O)O [Compound 5, cyclohexylmethyl carbamoylphosphonic acid]	50%			53%	69%	14%					200 nM	IC50 (recombinant MMP-9; Table 1, read-out: MMP-9 IC50): 1 µM; oral bioavailability (murine melanoma): 14%
NCCNC(=O)P(=O)(O)O [Compound 6, H2N(CH2)2NHCOPO3H2]	45%	800 nM	2 µM	43%	57%							
CN(C)CCNC(=O)P(=O)(O)O [Compound 7, Me2N(CH2)2NHCOPO3H2]	66%	30 nM	20 µM	75%	75%	29%						
O=P(O)(O)C(=S)NCC1CCCCC1 [Compound 8, N-(Cyclohexylmethyl)thiocarbamoylphosphonic acid]	70%	15 nM	0.015 µM	75%	80%	80%						oral bioavailability (murine melanoma): improved oral bioavailability
C[C@@H](NC(=O)P(=O)(O)O)C1CCCCC1 [Compound 9, N—[(R)-1-Cyclohexylethyl]carbamoylphosphonic acid]				35%			> 100000 nM	> 100000 nM	> 100000 nM	155 to 156 °C	200 nM	inhibition at 50 µM (cancer cells; 50 μM, Matrigel): 33%; times more active on MMP-2 than its analog or isomer (recombinant MMP-2): five times more active; IC50 (recombinant MMP-2; Table 2, read-out: MMP-2 IC50): 200 nM; IC50 (recombinant MMP-9; Table 1, read-out: MMP-9 IC50): ≥ 100 µM; IC50 (recombinant MMP-9; Table 2, read-out: MMP-9 IC50): > 100 µM; inhibition in vivo at 50 mg/kg (murine melanoma; IP, 50 mg/kg daily for 21 days, lung tumors counted, read-out: In vivo murine melanoma % reduction IP): 68%; inhibition in vivo at 50 mg/kg (murine melanoma; PO, 50 mg/kg daily for 21 days, lung tumors counted, read-out: In vivo murine melanoma % reduction PO): 90%; oral bioavailability (murine melanoma): 90%
C[C@H](NC(=O)P(=O)(O)O)C1CCCCC1 [Compound 9a]							2000 nM	100 nM	> 100000 nM	167 to 168 °C		IC50 (recombinant MMP-2; Table 2, read-out: MMP-2 IC50): 1000 nM; IC50 (recombinant MMP-9; Table 2, read-out: MMP-9 IC50): 10 µM

— patent US7345033B2, “Carbamoyl-and thiocarbamoyl-phosphonates and pharmaceutical compositions comprising them” (Yissum Research Development Company of the Hebrew …, priority 2003, dated 2008)
